The first assay has as its target Sodium/hydrogen exchanger 1 (Homo sapiens) (UniProt P19634). The experiment in a line: Ratio of compound K0.5 to amiloride K0.5 for NHE1.
Take `N=C(N)NC(=O)c1nc(Br)c(N2CCCCCC2)nc1N`: the Ratio turned out to be 566.

On to `CCN(c1nc(N)c(C(=O)NC(=N)N)nc1Cl)C(C)C`, for which the Ratio came out at 140.

With `CCN(c1nc(N)c(C(=O)NC(=N)N)nc1I)C(C)C`, the Ratio turned out to be 313.

In the case of `N=C(N)NC(=O)c1nc(Cl)c(N2CCCCCC2)nc1N`, the Ratio turned out to be 524.

The target in a further assay is T1, Urokinase-type plasminogen activator (Homo sapiens, UniProt P00749). As to the kind of experiment: Inhibition of urokinase-type plasminogen activator.
Turning to `Nc1noc(-c2nc(Cl)c(N)nc2N)n1`, the IC50 was greater than 1000 µM.

`N=C(N)NC(=O)c1cnc(Cl)c(Cl)c1` gave an IC50 greater than 1000 µM.

Compound `N=C(N)NC(=O)c1cnccn1` yielded an IC50 greater than 1000 µM.

Compound `N#CCCNc1nc(N)c(C(=O)NC(=N)N)nc1Cl` displayed an IC50 of 16 µM. That is a double-digit micromolar value.

`N=C(N)NC(=O)c1nc(Cl)c(NCc2ccccc2)nc1N` gave an IC50 of 8 µM.

As for `CCOP(=O)(O)CCNc1nc(N)c(C(=O)NC(=N)N)nc1Cl`, the IC50 was greater than 1000 µM.

The compound `N=C(N)NC(=O)c1nc(Cl)c(NCc2nnn[nH]2)nc1N` had an IC50 of 177 µM.

`CCN(CC)CCNc1nc(N)c(C(=O)NC(=N)N)nc1Cl`: the IC50 is 14 µM.

With `N=C(N)NC(=O)c1nc(Cl)c(NCCC(=O)O)nc1N`, it took 102 µM to reach half-maximal inhibition (IC50).

`N=C(N)NC(=O)c1cnc(N)c(Br)n1` displayed an IC50 greater than 1000 µM.

`N=C(N)NC(=O)c1nc(I)c(N)nc1N` yielded an IC50 of 2 µM.

`N=C(N)NC(=O)c1c[nH]cn1` showed an IC50 greater than 1000 µM.

`CCOP(=O)(CNc1nc(N)c(C(=O)NC(=N)N)nc1Cl)OCC`: the IC50 turned out to be 37 µM.

`N=C(N)NC(=O)c1nc(Cl)c(NCCNCc2ccccc2)nc1N` gave an IC50 of 28 µM.

As for `N=C(N)NC(=O)c1nc(C#Cc2ccccc2)c(N)nc1N`, the IC50 was found to be 2 µM.

For `N=C(N)NC(=O)c1nc(Cl)c(NCCc2nnn[nH]2)nc1N`, the IC50 came to 61 µM.

As to `N=C(N)NC(=O)c1nc(Cl)c(NCP(=O)(O)O)nc1N`, the IC50 was greater than 1000 µM.

Compound `N=C(N)NC(=O)c1nc(Cl)cnc1N` yielded an IC50 greater than 1000 µM.

In turn, `CCOP(=O)(NNc1nc(N)c(C(=O)NC(=N)N)nc1Cl)OCC` showed an IC50 of 10 µM. This lies in the double-digit micromolar range.

On to `N=C(N)NC(=O)c1nc(Cl)c(NCCS(=O)(=O)O)nc1N`, for which the IC50 is greater than 1000 µM.

`N=C(N)NC(=O)c1nc(Cl)c(NCC[n+]2ccccc2)nc1N` gave an IC50 of 30 µM.

On to `N=C(N)NC(=O)c1nc(-c2ccccc2)c(N)nc1N`, for which the IC50 amounted to 10 µM.

`NNC(=O)c1nc(Cl)c(N)nc1N` came in with an IC50 greater than 1000 µM.

`N=C(N)NC(=O)c1nc(Cl)c(NCc2ccccn2)nc1N` gave an IC50 of 38 µM.

Turning to `CN(CCNc1nc(N)c(C(=O)NC(=N)N)nc1Cl)Cc1ccccc1`, the IC50 turned out to be 15 µM.

Compound `N=C(N)NC(=O)c1nc(Cl)c(NCCc2ccccc2)nc1N` had an IC50 of 16 µM.

The compound `COc1cc(N)c(Cl)cc1C(=O)NC(=N)N` displayed an IC50 of 222 µM. Compared with the last compound, the IC50 is about 14-fold higher.

Turning to `N=C(N)NC(=O)c1nc(Cl)c(NCCP(=O)(O)O)nc1N`, the IC50 was greater than 1000 µM.

The compound `N=C(N)NC(=O)c1nc(Cl)c(NCC(=O)O)nc1N` had an IC50 of 110 µM.

`N=C(N)NC(=O)c1nc(Cl)c(NCCSCc2ccccc2)nc1N`: the IC50 is 21 µM. Against the preceding compound, the IC50 is about 5.2-fold lower.

Compound `N=C(N)NC(=O)c1nc(Cl)c(NCc2ccc(F)cc2)nc1N` returned an IC50 of 6 µM. Compared with the last compound, the IC50 is about 3.5-fold lower.

Consider `CCN(c1nc(N)c(C(=O)NC(=N)N)nc1Cl)C(C)C`, for which the midpoint of inhibition, the IC50, lay at 6 µM. This counts as single-digit micromolar.

Regarding `N=C(N)NC(=O)c1cccnc1` [AMINO(NICOTINAMIDO)METHANIMINIUM CHLORIDE], the IC50 is greater than 1000 µM.

In the case of `N=C(N)NC(=O)c1ncc(NCCc2ccccc2)nc1N`, the IC50 amounted to 120 µM.

The compound `N=C(N)NC(=O)c1ccccc1` [AMINO(BENZAMIDO)METHANIMINIUM CHLORIDE] had an IC50 greater than 1000 µM.

For the compound `N=C(N)NC(=O)c1ncc(N)nc1N`, it took 19 µM to reach half-maximal inhibition (IC50).

`N=C(N)NC(=O)c1nc(Cl)c(NCCS(=O)(=O)Cc2ccccc2)nc1N`: half-maximal inhibition (IC50) was put at 15 µM.

In turn, `N#CCNc1nc(N)c(C(=O)NC(=N)N)nc1Cl` returned an IC50 of 50 µM.

`N=C(N)NC(=O)c1nc(Cl)c(N2CCCCCC2)nc1N` had an IC50 of 6 µM.

As to `COC(=O)CNc1nc(N)c(C(=O)NC(=N)N)nc1Cl`, the IC50 stood at 26 µM.

In turn, `CCOP(=O)(CCNc1nc(N)c(C(=O)NC(=N)N)nc1Cl)OCC` gave an IC50 of 44 µM. Against the preceding compound, the IC50 is about 1.7-fold higher.

Regarding `N=C(N)NC(=O)c1nc(Cl)c(NCc2ccncc2)nc1N`, the IC50 is 6 µM.

In the case of `Cc1ccc(S(=O)(=O)NCCNc2nc(N)c(C(=O)NC(=N)N)nc2Cl)cc1`, the IC50 stood at 35 µM.

`N=C(N)NC(=O)c1ccccn1` [AMINO(PICOLINAMIDO)METHANIMINIUM CHLORIDE] registered an IC50 greater than 1000 µM.

The compound `CCOC(=O)CCNc1nc(N)c(C(=O)NC(=N)N)nc1Cl` yielded an IC50 of 25 µM.

For the compound `N=C(N)NC(=O)c1ncc(NCc2ccccc2)nc1N`, the IC50 was found to be 43 µM. This IC50 is about 1.7-fold higher than that of the compound before.

For `N=C(N)NC(=O)c1nc(Cl)c(NCc2cccnc2)nc1N`, inhibition was half-maximal at 17 µM (IC50).

Compound `N=C(N)NC(=O)c1nc(Br)c(N)nc1N` showed an IC50 of 5 µM.

The target in the next assay is Sodium/hydrogen exchanger 1 (Homo sapiens) (UniProt P19634). The experiment in a line: Inhibition of NHE1.
Sodium/hydrogen exchanger 1 (Homo sapiens), sequence (P19634 whole entry): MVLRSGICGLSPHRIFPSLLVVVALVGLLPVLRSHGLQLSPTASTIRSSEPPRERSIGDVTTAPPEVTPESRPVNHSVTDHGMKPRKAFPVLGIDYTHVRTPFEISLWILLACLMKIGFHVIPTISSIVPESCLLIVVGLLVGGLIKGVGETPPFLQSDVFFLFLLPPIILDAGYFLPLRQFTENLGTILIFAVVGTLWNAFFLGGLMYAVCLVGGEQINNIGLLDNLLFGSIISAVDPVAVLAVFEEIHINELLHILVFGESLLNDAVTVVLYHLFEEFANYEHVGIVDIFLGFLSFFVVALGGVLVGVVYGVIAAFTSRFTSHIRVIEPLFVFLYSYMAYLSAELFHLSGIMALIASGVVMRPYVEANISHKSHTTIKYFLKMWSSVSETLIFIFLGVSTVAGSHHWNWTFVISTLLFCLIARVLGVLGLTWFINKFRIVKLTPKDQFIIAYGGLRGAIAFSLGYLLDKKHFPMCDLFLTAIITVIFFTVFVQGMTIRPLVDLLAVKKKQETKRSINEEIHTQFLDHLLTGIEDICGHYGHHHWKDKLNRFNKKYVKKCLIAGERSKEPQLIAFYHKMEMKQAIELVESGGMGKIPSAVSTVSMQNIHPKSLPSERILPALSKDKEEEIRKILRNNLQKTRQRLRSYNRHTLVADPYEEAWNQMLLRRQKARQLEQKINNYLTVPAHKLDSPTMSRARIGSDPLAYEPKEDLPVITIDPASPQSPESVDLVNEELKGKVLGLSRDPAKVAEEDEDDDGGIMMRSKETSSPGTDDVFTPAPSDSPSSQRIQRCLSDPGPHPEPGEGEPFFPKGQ
Compound `N=C(N)NC(=O)c1nc(Cl)c(N)nc1N` gave a K0.5 of 7 µM.

The target of another assay is T1, Urokinase-type plasminogen activator. As to the kind of experiment: Ratio of compound K0.5 to amiloride K0.5 for urokinase-type plasminogen activator.
Take `CCN(c1nc(N)c(C(=O)NC(=N)N)nc1Cl)C(C)C`: the Ratio IC50 amounted to 2.

With `N=C(N)NC(=O)c1nc(Cl)c(N2CCCCCC2)nc1N`, the Ratio IC50 was 2.

Values taken from ChEMBL document CHEMBL1909623, “Synthesis and preliminary evaluation of amiloride analogs as inhibitors of the urokinase-type plasminogen activator (uPA)” (Bioorg Med Chem Lett, 2011).
